Test results reported in US12325706B2, “Polymorphic form of sepiapterin” (PTC Therapeutics MP, Inc., priority 2016, dated 2025).

Experiments:
[1] = Storage stability of sepiapterin polymorph forms, HPLC purity; format: physicochemical; parameters: Impurity RRT 1.06 (HPLC) / Impurity RRT 1.08 (HPLC) / Impurity RRT 1.17 (HPLC) / Impurity RRT 1.21 (HPLC) / Impurity RRT 1.25 (HPLC) / Impurity RRT 0.62 (HPLC) / Impurity RRT 0.89 (HPLC) / Impurity RRT 0.95 (HPLC) / Impurity RRT 0.60 (HPLC): unit not given here; settings: for % of Initial / Purity (area %): 100% RH
Method: (§1) Form A and F samples were placed in chambers with silica gel to remove water (the relative humidity was measured to be ˜10% RH) at different temperatures. Form D samples were placed in chambers with water (relative humidity was estimated to be ˜100% RH) at different temperatures.
(§2) The HPLC purities and XRD patterns were obtained for each of Form A/F/D samples stored at various temperatures.
Samples of sepiapterin free base polymorph Forms D, F, and A were stored at room temperature (RT), 35° C., and 50° C. The samples were analyzed by HPLC at 1 week and 4 week intervals.

[2] = Storage stability of sepiapterin polymorph forms, form change by XRD; format: physicochemical; settings: 100% RH
Method: as §1, §2

## C[C@H](O)C(=O)C1=Nc2c(nc(N)[nH]c2=O)NC1 [Form D, sepiapterin]
[1]; 35° C./100% RH, 1 w
  Impurity RRT 0.62 (HPLC): <0.05
  Impurity RRT 0.95 (HPLC): 0.86
  Impurity RRT 1.08 (HPLC): 0.14
  Impurity RRT 1.17 (HPLC): 0.17
  Sepiapterin RRT 1.00 (HPLC), amount of sepiapterin: 98.83%
[1]; 35° C./100% RH, 4 w
  Impurity RRT 0.62 (HPLC): 0.09
  Impurity RRT 0.95 (HPLC): 1.04
  Impurity RRT 1.08 (HPLC): <0.05
  Impurity RRT 1.17 (HPLC): 0.17
  Sepiapterin RRT 1.00 (HPLC), amount of sepiapterin: 98.70%
[1]; 50° C./100% RH, 1 w
  Impurity RRT 0.62 (HPLC): 0.08
  Impurity RRT 0.95 (HPLC): 1.05
  Impurity RRT 1.08 (HPLC): 0.26
  Impurity RRT 1.17 (HPLC): 0.16
  Sepiapterin RRT 1.00 (HPLC), amount of sepiapterin: 98.45%
[1]; 50° C./100% RH, 4 w
  Impurity RRT 0.62 (HPLC): 0.14
  Impurity RRT 0.95 (HPLC): 2.03
  Impurity RRT 1.08 (HPLC): <0.05
  Impurity RRT 1.17 (HPLC): 0.18
  Sepiapterin RRT 1.00 (HPLC), amount of sepiapterin: 97.65%
[1]; Initial
  Impurity RRT 1.08 (HPLC): <0.05
  Impurity RRT 1.17 (HPLC): 0.17
[1]; Initial, listed as Polymorph D
  Impurity RRT 0.62 (HPLC): <0.05
  Impurity RRT 0.95 (HPLC): 0.69
  Sepiapterin RRT 1.00 (HPLC), amount of sepiapterin: 99.14%
[1]; Initial, listed as polymorph D
  Sepiapterin RRT 1.00 (HPLC), amount of sepiapterin: 99.14%
[1]; RT/100% RH, 1 w
  Impurity RRT 0.62 (HPLC): <0.05
  Impurity RRT 0.95 (HPLC): 0.83
  Impurity RRT 1.08 (HPLC): <0.05
  Impurity RRT 1.17 (HPLC): 0.16
  Sepiapterin RRT 1.00 (HPLC), amount of sepiapterin: 99.01%
[1]; RT/100% RH, 4 w
  Impurity RRT 0.62 (HPLC): 0.09
  Impurity RRT 0.95 (HPLC): 0.81
  Impurity RRT 1.08 (HPLC): <0.05
  Impurity RRT 1.17 (HPLC): 0.17
  Sepiapterin RRT 1.00 (HPLC), amount of sepiapterin: 98.92%
[1]; initial, before storage
  Purity of initial samples by HPLC: 99.1 area %
[1]; storage 1 week, 35° C.
  % of Initial: 99.7%
  Purity (area %): 98.8 area %
[1]; storage 1 week, 50° C.
  % of Initial: 99.3%
  Purity (area %): 98.5 area %
[1]; storage 1 week, RT
  % of Initial: 99.9%
  Purity (area %): 99.0 area %
[1]; storage 4 weeks, 35° C.
  % of Initial: 99.6%
  Purity (area %): 98.7 area %
[1]; storage 4 weeks, 50° C.
  % of Initial: 98.5%
  Purity (area %): 97.7 area %
[1]; storage 4 weeks, RT
  % of Initial: 99.8%
  Purity (area %): 98.9 area %
[1]; storage up to 4 weeks at RT, 35° C., 50° C., listed as polymorph D
  Stability on storage as determined by HPLC, comparison of forms in words: significantly greater stability than polymorph A
[2]; storage 1 week, 35° C.
  Form change: No
[2]; storage 1 week, 50° C.
  Form change: No
[2]; storage 1 week, RT
  Form change: No
[2]; storage 4 weeks, 35° C.
  Form change: No
[2]; storage 4 weeks, 50° C.
  Form change: No
[2]; storage 4 weeks, RT
  Form change: No
